Results published in ChEMBL document CHEMBL1201862, “PubChem BioAssay data set” (2004).
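Each compound was tested at five concentrations against cells in 96-well plates for 48 hours. GI50 marks 50% less growth.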 The source made the active and inactive calls. Cut-off read from the data, not from the text of the source: active = GI50 up to about 1.1 µM and inactive = higher.

Assays:
Test in all cases: NCI anticancer screen, dose series, 48 h
NCI-H460 = tested on: NCI-H460
KM12 = tested on: KM12
ACHN = tested on: ACHN
LOX IMVI = tested on: LOX IMVI
RXF 393 = tested on: RXF 393
TK-10 = tested on: TK-10
CAKI-1 = tested on: CAKI-1
UACC-62 = tested on: UACC-62
SF-539 = tested on: SF-539
HCT-116 = tested on: HCT-116
EKVX = tested on: EKVX
OVCAR-4 = tested on: OVCAR-4
MCF7 = tested on: MCF7
COLO 205 = tested on: COLO 205
Malme-3M = tested on: Malme-3M
A498 = tested on: A498
HT-29 = tested on: HT-29
786-0 = tested on: 786-0
U-251 = tested on: U-251
CCRF-CEM = tested on: CCRF-CEM

Row | SMILES | GI50 (NCI-H460) | GI50 (KM12) | GI50 (ACHN) | GI50 (LOX IMVI) | GI50 (RXF 393) | GI50 (TK-10) | GI50 (CAKI-1) | GI50 (UACC-62) | GI50 (SF-539) | GI50 (HCT-116) | GI50 (EKVX) | GI50 (OVCAR-4) | GI50 (MCF7) | GI50 (COLO 205) | GI50 (Malme-3M) | GI50 (A498) | GI50 (HT-29) | GI50 (786-0) | GI50 (U-251) | GI50 (CCRF-CEM)
1 | O=C1c2ccccc2CC12Cc1ccccc1C2 | 57.9 µM (inactive) | 44.9 µM (inactive) | 63.1 µM (inactive) | 35.8 µM (inactive) | 20.6 µM (inactive) | 21.9 µM (inactive) | 48.3 µM (inactive) | > 100 µM (inactive) | > 100 µM (inactive) | 44.1 µM (inactive) | 20.7 µM (inactive) | 16.7 µM (inactive) | 53.5 µM (inactive) | 44.7 µM (inactive) | 70 µM (inactive) | > 100 µM (inactive) | 23.4 µM (inactive) | 36 µM (inactive) | 60.7 µM (inactive) | 48.3 µM (inactive)
2 | CN(C)CCCNc1ccc([N+](=O)[O-])c2nc3ccccc3c(N)c12 | 0.352 µM (active) | 0.436 µM (active) | 0.205 µM (active) | 0.36 µM (active) | 0.736 µM (active) | 2.27 µM (inactive) | 2.67 µM (inactive) | 1.25 µM (inactive) | 0.449 µM (active) | 0.124 µM (active) | 0.755 µM (active) | 0.169 µM (active) | 0.459 µM (active) | 0.243 µM (active) | 0.51 µM (active) | 2.22 µM (inactive) | 0.225 µM (active) | 0.385 µM (active) | 0.738 µM (active) | 0.243 µM (active)
3 | CN/N=C(\C)C(CN(C)C)C(c1ccccc1)c1c(O)c2ccccc2oc1=O (stereo not given) | > 100 µM (inactive) | > 100 µM (inactive) | > 100 µM (inactive) | > 100 µM (inactive) | 0.441 µM (active) | > 100 µM (inactive) | > 100 µM (inactive) | 31.3 µM (inactive) | > 100 µM (inactive) | > 100 µM (inactive) | > 100 µM (inactive) | 99.1 µM (inactive) | > 100 µM (inactive) | 40.4 µM (inactive) | 78.9 µM (inactive) | > 100 µM (inactive) | > 100 µM (inactive) | > 100 µM (inactive) | > 100 µM (inactive) | 73.6 µM (inactive)
4 | CCC(C)NC(=S)N/N=C(\C)c1ccccn1 (stereo not given) | 0.15 µM (active) | 0.156 µM (active) | < 0.01 µM (active) | < 0.0211 µM (active) | < 0.01 µM (active) | 2.87 µM (inactive) | < 0.01 µM (active) | 0.0733 µM (active) | 0.906 µM (active) | < 0.01 µM (active) | < 0.01 µM (active) | 1.31 µM (inactive) | < 0.01 µM (active) | < 0.01 µM (active) | 1.83 µM (inactive) | 0.102 µM (active) | < 0.01 µM (active) | 0.171 µM (active) | 0.126 µM (active) | < 0.01 µM (active)
5 | COc1cc(/C=C/C(=O)c2c([O-])on[n+]2-c2ccccc2)ccc1O | 2.07 µM (inactive) | 2.31 µM (inactive) | 2.32 µM (inactive) | 2.09 µM (inactive) | 2 µM (inactive) | 3.29 µM (inactive) | 3 µM (inactive) | 3.44 µM (inactive) | 2.58 µM (inactive) | 2.19 µM (inactive) | 3.72 µM (inactive) | 1.9 µM (inactive) | 3.49 µM (inactive) | 12.1 µM (inactive) | 2.78 µM (inactive) | 7.46 µM (inactive) | 2.37 µM (inactive) | 2 µM (inactive) | 3.1 µM (inactive) | 1.37 µM (inactive)
6 | CC1OC2(CC(OCc3ccccc3)C1OCc1ccccc1)OCCO2 (stereo not given) | 32 µM (inactive) | 63.7 µM (inactive) | 61.8 µM (inactive) | 33.6 µM (inactive) | 16.4 µM (inactive) | > 100 µM (inactive) | 63.1 µM (inactive) | 56.9 µM (inactive) | > 100 µM (inactive) | 45.9 µM (inactive) | 35.6 µM (inactive) | 76.7 µM (inactive) | 66.2 µM (inactive) | 62.1 µM (inactive) | > 100 µM (inactive) | 12.8 µM (inactive) | 20.9 µM (inactive) | 61.5 µM (inactive) | 44.5 µM (inactive) | 34.4 µM (inactive)
7 | COC(=O)C1CCC(=O)N1C(c1ccccc1)c1cc(OC)c(OC)c(OC)c1 (stereo not given) | 43 µM (inactive) | 45.8 µM (inactive) | > 100 µM (inactive) | 56.2 µM (inactive) | > 100 µM (inactive) | > 100 µM (inactive) | 22.3 µM (inactive) | 60.5 µM (inactive) | 69.5 µM (inactive) | 50 µM (inactive) | 91 µM (inactive) | 49.7 µM (inactive) | 67.9 µM (inactive) | 45.5 µM (inactive) | 61.1 µM (inactive) | 82.4 µM (inactive) | 29.4 µM (inactive) | > 100 µM (inactive) | 80.4 µM (inactive) | 53.3 µM (inactive)
